Laboratory results: PMC8405639, “2-Carba-lysophosphatidic acid is a novel β-lysophosphatidic acid analogue with high potential for lysophosphatidic acid receptor activation and autotaxin inhibition” (Scientific Reports, 2021)

Experiments:
[1] = molecular target: T1, hLPA4 (Homo sapiens, UniProt Q99677); test: TGFα-shedding assay, LPA4; type: cell-based; settings: 293A cells, AP-TGFα release; for EC50: 1 h, with Ki16425 10 μM; for Emax: read-out: Emax ± SEM hLPA4 (converted)
T1 construct: expressed in transfected cells; host or cells: 293A cells
T1 sequence (Q99677 whole entry): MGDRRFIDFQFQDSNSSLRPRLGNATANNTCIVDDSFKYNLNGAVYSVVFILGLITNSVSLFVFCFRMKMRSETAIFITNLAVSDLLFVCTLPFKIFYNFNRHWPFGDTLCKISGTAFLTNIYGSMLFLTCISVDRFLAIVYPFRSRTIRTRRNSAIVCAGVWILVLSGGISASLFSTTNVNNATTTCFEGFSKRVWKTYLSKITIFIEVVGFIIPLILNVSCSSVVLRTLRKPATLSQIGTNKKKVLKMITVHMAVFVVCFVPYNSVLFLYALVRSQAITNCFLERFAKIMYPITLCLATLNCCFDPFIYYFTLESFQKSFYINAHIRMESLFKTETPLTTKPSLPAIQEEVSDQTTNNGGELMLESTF
Experimental: (§1) 293A cells expressing LPA receptors were stimulated with the indicated concentration of LPA, 2carbaLPA, and cPA analogues. Receptor-specific alkaline phosphatase-tagged transforming growth factor-α release was calculated by subtracting the responses in the empty vector-transfected cells from those in the receptor-expressing cells. Data are represented as standard error of the mean of three independent replicates.
(§2) 293A cells (Life Technologies, Tokyo, Japan) were cultured in DMEM (Nissui Pharmaceutical, Tokyo, Japan) supplemented with 10% foetal calf serum (Gibco, Waltham, MA, USA) in an incubator at 37 °C and 5% CO2. This assay was conducted according to a modified version of a method described previously. […] The cells were co-transfected with vectors-expressing human LPA1–6, alkaline phosphatase-tagged TGFα (AP-TGFα). As negative controls, cells transfected with an empty vector instead of the receptor-expressing vector were used. After 24 h, the cells were resuspended in Hank’s balanced salt solution (HBSS), seeded in 96-well plates, and stimulated with cPA analogues administered at tenfold concentration of the final concentration. The cPA analogues were diluted with HBSS, 0.01% protease and fatty acid-free BSA (SERVA Electrophoresis GmbH, Heidelberg, Germany). Cells for LPA4, LPA5, and LPA6 analysis were treated with Ki16425 (final concentration: 10 μM), 5 min before treatment with the cPA analogues. After incubation for 1 h at 37 °C, 80 µL of the supernatant was transferred to fresh 96-well plates. An equal volume of 1 mM p-NPP solution [120 mM Tris–HCl (pH 9.5), 40 mM NaCl, and 10 mM MgCl2] was added to both the supernatant and the cells. Alkaline phosphatase activity was calculated by measuring absorbance at 405 nm using the Cytation 3 plate reader (BioTek, Winooski, VT, USA).

[2] = molecular target: T2, hLPA5 (Homo sapiens, UniProt Q9H1C0); test: TGFα-shedding assay, LPA5; type: cell-based; settings: 293A cells, AP-TGFα release; for EC50: 1 h, with Ki16425 10 μM; for Emax: read-out: Emax ± SEM hLPA5 (converted)
T2 construct: expressed in transfected cells; host or cells: 293A cells
T2 sequence (Q9H1C0 whole entry): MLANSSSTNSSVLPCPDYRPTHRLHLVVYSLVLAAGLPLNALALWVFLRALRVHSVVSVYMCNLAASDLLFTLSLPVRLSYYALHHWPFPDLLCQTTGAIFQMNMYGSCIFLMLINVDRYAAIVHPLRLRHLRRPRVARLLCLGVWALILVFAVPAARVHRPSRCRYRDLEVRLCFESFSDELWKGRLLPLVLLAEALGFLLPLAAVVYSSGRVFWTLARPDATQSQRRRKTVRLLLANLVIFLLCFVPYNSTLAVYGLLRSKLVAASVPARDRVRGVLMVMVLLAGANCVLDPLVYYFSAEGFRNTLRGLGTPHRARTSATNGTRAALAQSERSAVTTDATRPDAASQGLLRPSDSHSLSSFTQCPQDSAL
Experimental: as §1, §2

[3] = molecular target: T3, human recombinant ATX (Homo sapiens, UniProt Q13822); test: Hydrolysis of cPA analogues by ATX (LC-QqQ); type: biochemical; settings: substrate 10 µM, ATX 50 nM, 37 °C, time-dependent
T3 construct: purchased Cayman Chemical
Experimental: Analyses of LPA from cPA, 2carbaLPA from 2ccPA, and 3carbaLPA from 3ccPA were performed using LC-QqQ as per methods described previously. cPA 18:1, or 2ccPA 18:1 and 3ccPA 18:1 mixture as substrate (10 μM each) were incubated at 37 °C for 2 h with human recombinant ATX (final concentration: 50 nM) and subjected to LC-QqQ. 2carbaLPA and 3carba LPA were both detected in the negative ion mode with selected reaction monitoring (SRM) of the transition from m/z 433.27 to m/z 151.02. To separate α-LPA and the predicted β-LPA or 2carbaLPA and 3carbaLPA, LC method was performed as per previously described protocols with some modifications. Briefly, the UHPLC PEEK Inertsil ODS-3 C18 column (3 µm, 2.1 × 150 mm; GL Sciences, Tokyo, Japan) was used and the compounds were eluted with a gradient solvent system: solvent A (5 mM ammonium formate in water containing 0.0096% formic acid, pH 4.0), solvent B (5 mM ammonium formate in 95% acetonitrile/5% water containing 1.16% formic acid, pH 4.0). The analytical procedure commenced with solvent B 55% for 10 min, followed by a linear gradient 85% for 40 min that was maintained at 85% for 15 min. […] The flow rate was 0.2 mL/min at a column temperature of 40 ℃. The injection volume was 10 µL/sample.
Supplementary Figure S4. Lysophosphatidic acid (LPA) produced from cyclic phosphatidic acid (cPA), 2-carba-lysophosphatidic acid (2carbaLPA) produced from 2-carba-cyclic phosphatidic acid (2ccPA) and 3-carba-lysophosphatidic acid (3carbaLPA) produced from 3-carba-cyclic phosphatidic acid (3ccPA) by autotaxin (ATX). (a) cPA 16:0, (b) 2ccPA or (c) 3ccPA (final concentration: 10 µM each) was incubated with or without human recombinant ATX (50 nM final concentration) at 37°C. The amount of produced (a) LPA 16:0, (b) 2carbaLPA or (c) 3carbaLPA was detected using liquid chromatography with tandem mass spectrometry (LC-QqQ) and presented as peak area (counts). Data are represented as mean ± standard deviation of experiments conducted in duplicate. […]

SMILES | EC50 [1] [nM] | Emax [1] [%] | EC50 [2] [nM] | Emax [2] [%] | Hydrolysis by ATX [3]
CCCCCCCC/C=C\CCCCCCCC(=O)OCC(CO)CP(=O)(O)O (centres unmarked) [2carbaLPA 18:1, 2-carba-lysophosphatidic acid] | 1 | 24.9 | 50.2 | 38.3 | 
CCCCCCCC/C=C\CCCCCCCC(=O)OCC1COP(=O)(O)C1 (centres unmarked) [2ccPA 18:1, 2-carba-cyclic phosphatidic acid] | 71.9 | 19.6 | 973 | 31.7 | 2ccPA to 2carbaLPA
CCCCCCCC/C=C\CCCCCCCC(=O)OC[C@@H](O)CCP(=O)(O)O [3carba LPA 18:1, 3-carba-lysophosphatidic acid] | 1.9 | 23.5 | 89.3 | 35.5 | 
CCCCCCCC/C=C\CCCCCCCC(=O)OC[C@@H]1CCP(=O)(O)O1 [3ccPA 18:1, 3-carba-cyclic phosphatidic acid] | 92.3 | 23.3 | 2230 | 51.2 | hydrolysed to 3carbaLPA by ATX
CCCCCCCC/C=C\CCCCCCCC(=O)OC[C@@H]1COP(=O)(O)O1 [cPA 18:1, 1-Oleoyl-cPA] | 32.8 | 17.2 | 354 | 35.6 | hydrolyses cPA to LPA
